Laboratory results reported in ChEMBL document CHEMBL3045381, “Antiproliferative activity of pentadeca-(8E, 13Z) dien-11-yn-2-one and (E)-1,8-pentadecadiene from Echinacea pallida (Nutt.) Nutt. roots” (Med Chem Res, 2013).
The source made the active and inactive calls. No cut-off for these calls is given here.

Tests used:
Assay type in all cases: functional, cell-based
C6 [1] = assay: Antiproliferative activity against Rattus norvegicus (rat) C6 cells at 5 to 75 ug/ml after 24 hr by BRdU incorporation assay
HeLa [2] = assay: Antiproliferative activity against Homo sapiens (human) HeLa cells at 5 to 40 ug/ml after 24 hr by BRdU incorporation assay
C6 [3] = assay: Antiproliferative activity against Rattus norvegicus (rat) C6 cells at 5 to 100 ug/ml after 24 hr by BRdU incorporation assay
HeLa [4] = assay: Antiproliferative activity against Homo sapiens (human) HeLa cells at 5 to 100 ug/ml after 24 hr by BRdU incorporation assay

Row | SMILES | Activity (C6 [1]) | Activity (HeLa [2]) | Activity (C6 [3]) | Activity (HeLa [4])
1 | C/C=C\C#CC/C=C\CCCCCC(C)=O | Active | Active |  | 
2 | C=CCCCCC/C=C/CCCCCC |  |  | inactive | inactive
